{
  "source": "patent US12692461B2",
  "about": "“Composite form of tetraacetylenediamine” (ONE1STAR SOLUTIONS LIMITED, priority 2020, dated 2026)",
  "key": {"[1]": {"assay": "Example 4: performance and water miscibility in presence of sodium percarbonate, undissolved TAED at T=0 and T=6 months", "format": "physicochemical", "description": "The TAED:Sodium percarbonate ratio used for the study was 1:2.5 w/w. […] This 100 mL solution was either used as it was or it was further diluted to with 900 mL water to make a 1 L sample."}, "[2]": {"settings": "cited from earlier work"}, "[3]": {"assay": "Example 3: performance and water miscibility in presence of sodium percarbonate, weight of remaining material", "quoted_text": "The experiment was carried out to check the performance and water miscibility of TAED in presence of sodium percarbonate. 1 gram of TAED with 2.5 gram of sodium percarbonate was added 1 litre water and stirred at 500 rpm using overhead stirrer. In Experiment set up the amount of water used for the study was 1 litre."}},
  "note": "Read-outs that look alike come from different tables or passages of the source.",
  "data": [
    {"smiles": "CC(=O)N(CCN(C(C)=O)C(C)=O)C(C)=O", "note": "[TAED (Commercially available), Tetraacetylethylenediamine]", "values": [
      {"measurement": "Undissolved TAED", "setting": "[1]; 1 g TAED, 1 L, 1 min, T = 6 months (40° C., 75% relative humidity)", "result": 90, "unit": "mg"},
      {"measurement": "Undissolved TAED", "setting": "[1]; 1 g TAED, 1 L, 4 min, T = 0", "result": 60, "unit": "mg"},
      {"measurement": "Undissolved TAED", "setting": "[1]; 1 g TAED, 1 L, 4 min, T = 6 months (40° C., 75% relative humidity)", "result": 60, "unit": "mg"},
      {"measurement": "Undissolved TAED", "setting": "[1]; 1 g TAED, 100 mL diluted to 1 L, 1 min, T = 0", "result": 90, "unit": "mg"},
      {"measurement": "Undissolved TAED", "setting": "[1]; 1 g TAED, 100 mL water, stirring 1 min, T = 6 months (40° C., 75% relative humidity)", "result": 150, "unit": "mg"},
      {"measurement": "Undissolved TAED", "setting": "[1]; 1 g TAED, 100 mL water, stirring 4 min, T = 0", "result": 100, "unit": "mg"},
      {"measurement": "Undissolved TAED", "setting": "[1]; 1 g TAED, 100 mL water, stirring 4 min, T = 6 months (40° C., 75% relative humidity)", "result": 100, "unit": "mg"},
      {"measurement": "Undissolved TAED", "setting": "[1]; 1 g TAED, sodium percarbonate 1:2.5 w/w, 100 mL water, stirring 1 min, T = 0", "result": 150, "unit": "mg"},
      {"measurement": "Undissolved TAED", "setting": "[1]; 3 gram TAED, 1 litre, stirring 1 min, T = 0", "result": 1.8, "unit": "gram"},
      {"measurement": "Undissolved TAED", "setting": "[1]; 3 gram TAED, 1 litre, stirring 1 min, T = 6 month", "result": 1.8, "unit": "gram"},
      {"measurement": "Undissolved TAED", "setting": "[1]; 3 gram TAED, 1 litre, stirring 4 min, T = 0", "result": 1.2, "unit": "gram"},
      {"measurement": "Undissolved TAED", "setting": "[1]; 3 gram TAED, 1 litre, stirring 4 min, T = 6 month", "result": 1.2, "unit": "gram"},
      {"measurement": "Undissolved TAED", "setting": "[1]; 3 gram TAED, 100 ml water, stirring 1 min, T = 0", "result": 2, "unit": "gram"},
      {"measurement": "Undissolved TAED", "setting": "[1]; 3 gram TAED, 100 ml water, stirring 1 min, T = 6 month", "result": 2, "unit": "gram"},
      {"measurement": "Undissolved TAED", "setting": "[1]; 3 gram TAED, 100 ml water, stirring 4 min, T = 0", "result": 1.8, "unit": "gram"},
      {"measurement": "Undissolved TAED", "setting": "[1]; 3 gram TAED, 100 ml water, stirring 4 min, T = 6 month", "result": 1.8, "unit": "gram"},
      {"measurement": "solubility", "setting": "[2]; 20° C.", "result": 200, "unit": "µg/mL"},
      {"measurement": "solubility", "setting": "[2]", "result": "around 200 mg/L"},
      {"measurement": "amount remained after 5 min", "setting": "[3]; 100 ml water", "result": 800, "unit": "mg"},
      {"measurement": "amount remained after 5 min", "setting": "[3]; 250 ml water", "result": 750, "unit": "mg"},
      {"measurement": "amount remained after 5 min", "setting": "[3]; 500 ml water", "result": 690, "unit": "mg"}
    ]}
  ]
}
